Assay results taken from patent US20250339470A1, “METHODS AND COMPOSITIONS FOR MATURING CARDIOMYOCYTES” (President and Fellows of Harvard College, priority 2024, published 2025).
Entries after “also recorded” stand apart in the source; their conditions may differ.

Tests used:
hiPSC-CMs = experiment: qPCR mRNA expression of hiPSC-CMs cultured 7 days on SAP-coated plates; assay type: cell-based, human; conditions: 7 days on 0.25% SAP coating; control Geltrex
Protocol: At day 14 of cardiomyocyte differentiation, completion of the protocol was confirmed. Fully beating cardiomyocyte embryoid bodies were dissociated using the cardiomyocyte dissociation kit (STEMdiff Cardiomyocyte Dissociation Kit, […] Technologies, Canada) and reseeded (1.2 million cells/well) onto 6-well plates, which were prepared as follows. Each 6-well plate had 3 wells coated with Geltrex (control) and 3 wells coated with one of four self-assembling peptides (SAPs) at 0.25% concentration such that the differentiated cardiomyocytes would be cultured with the SAP. Specifically, the following SAPs were used in this study: RADA16, IEIK13, KLD12, and QLEL12. The cells were maintained for further in vitro analysis. Total RNA was extracted 7 days after initial exposure to each SAP to analyze messenger RNA (mRNA) expression of cardiomyocyte genes characteristics of an adult-like state. The inventors used Tryzol (TRIzol Reagent, Invitrogen, USA) to extract total RNA and a purification kit (E.Z.N.A. Total RNA kit I, Omega Bio-tec, Inc., Georgia, USA) according to the manufacturer's instructions. After quantification, RNA was reverse transcribed to cDNA using the High-Capacity cDNA Reverse Transcription Kit (Applied Biosystems) according to the manufacturer's instructions. Quantitative Polymerase Chain Reaction (qPCR) was performed in triplicate for each sample using the iTaq Universal SYBR Green Supermix (Bio-Rad) and the primer pairs (table S3) with a Bio-Rad CFX384 Real-Time thermal cycler. Double delta analyses were performed to compute the relative mRNA expression of each target gene using glyceraldehyde-3-phosphate dehydrogenase (GAPDH) as a housekeeping control gene.

[1] = test system: hiPSC-CMs injected into the rat left ventricle wall; experiment: Sarcomere organization (SOTA), orientation and length of injected hiPSC-CMs; assay type: in vivo; conditions: 7 days post-injection
Protocol: The sections were stained with anti-cardiac troponin T antibody (Alexa Fluor 647 Mouse Anti-Cardiac Troponin T (cat #565744): cTnT, BD Pharmagen. 1:200), anti-human troponin I antibody (Recombinant Anti-Cardiac Troponin I antibody [EP1106Y] (ab52862): hTnI, Abcam 1:250), and DAPI as performed in the immunofluorescent staining. […] In this study, the inventors applied SarcOmere Texture Analysis (SOTA) to quantify sarcomere organization (17). SOTA was conducted by independent investigators who had no prior knowledge of the sample information. This methodological approach minimized potential biases and enhanced the reliability of the results.
hiPSC-CMs were stained with hTnI to identify myofilaments. […]
Sarcomere length was measured as the distance between hTnI-stained Z-lines from cardiomyocytes with visible sarcomere structures. An average of 10 sarcomeres from each sample was calculated on an interpolated YZ projection to account for spatial distribution across different regions of the image (45). […]
The inventors performed the automated analysis of sarcomere organization using SOTA, which was previously validated in endogenous, direct reprogrammed, and induced pluripotent-derived cardiomyocytes (17). […] The inventors also calculated the primary sarcomere orientation using the SOTA angle of peak prominence. […]

[2] = test system: hiPSC-CMs transplanted into rat hearts; experiment: Electrophysiological recording with flexible mesh nanoelectronics (Langendorff); assay type: in vivo; conditions: 3 months after transplantation into the athymic rat heart
Protocol: The inventors used RNU nude rats (8-10 weeks old, male, 250-350 g). Rats received cyclosporine injections (15 mg/kg) as an immunosuppressant a day before the injection and every day after surgery. […] After at least five days of observation in healthy conditions, the rats were applied to the electrophysiological study. […] As a pre-surgical analgesic, buprenorphine (0.1 mg/kg) was administered to the rats before anesthesia. […] The distal ascending aorta was ligated with a 4-0 silk suture, followed by infusion of heparin to coronary arteries, with the right atrium cut open to infuse efficiently with decreased right atrium pressure. […] The temperature of the circulated solution, the chamber of the Langendorff, and the heart rate were monitored with a data acquisition system (Bridge Amp (PowerLab 8/30, ADInstruments, USA), Bio Amp (Product code: FE231, ADInstruments, USA), Spring Clip Electrodes (Product code: MLA1214, AD ADInstruments, USA), and LabChart software v8.1.20) until the heart beating became stable. […] The inventors analyzed the electrophysiological data with a customized Python script. […] The inventors then detected electrical spikes using “find_peaks” from Scipy. The inventors manually curated the detected spikes into host sinus rhythm, automaticity/arrhythmia rhythm, and noises. […] The spikes were recorded at both the injection and reference sites. • 2. […]

## IEIK13
hiPSC-CMs
  expression of KCNJ2: significantly higher

## KLD12
hiPSC-CMs
  expression of KCNJ2: significantly higher

## RADA16
hiPSC-CMs
  expression of GJA1: significantly higher in the RADA16 group compared to all other SAP groups and the control group; also recorded: highest expression
  expression of KCNJ2: significantly higher; also recorded: highest expression
  expression of NANOG: significantly lower in the RADA16 and control groups than in the IEIK13 group; also recorded: no significant difference between the control and RADA16 group; also recorded: significantly declined
  ratio of MYH7 mRNA expression to MYH6 expression: significantly higher in the RADA16 group than in the IEIK13 and QLEL12 groups; also recorded: not significantly different between the RADA16 and control groups nor the RADA16 and KLD12 groups; also recorded: most pronounced increase
  ratio of TNNI3 to TNNI1 expression: higher TNNI3/TNNI1 expression ratio
[1]
  sarcomere length: not associated with a difference
[2]
  ventricular bigeminy: not observed
